Tests used:
DU-145 = test: Growth inhibition of human DU145 cells assessed as cell growth at 10 uM after 48 hrs by sulforhodamine B assay; assay type: functional; conditions: DU-145, 48 h, read-out: Activity
MDA-MB-231 = test: Growth inhibition of human MDA-MB-231 cells assessed as cell growth at 10 uM after 48 hrs by sulforhodamine B assay; assay type: functional; conditions: MDA-MB-231, 48 h, read-out: Activity
SW-620 = test: Growth inhibition of human SW620 cells after 48 hrs by sulforhodamine B assay; assay type: functional; conditions: SW-620, 48 h
COLO 205 = test: Growth inhibition of human COLO205 cells assessed as cell growth at 10 uM after 48 hrs by sulforhodamine B assay; assay type: functional; conditions: COLO 205, 48 h, read-out: Activity
SR = test: Growth inhibition of human SR cells after 48 hrs by sulforhodamine B assay; assay type: functional
SK-OV-3 = test: Growth inhibition of human SKOV3 cells assessed as cell growth at 10 uM after 48 hrs by sulforhodamine B assay; assay type: functional; conditions: SK-OV-3, 48 h, read-out: Activity
MDA-MB-435 = test: Growth inhibition of human MDA-MB-435 cells after 48 hrs by sulforhodamine B assay; assay type: functional, cell-based; conditions: MDA-MB-435, 48 h
A498 [1] = test: Growth inhibition of human A498 cells assessed as cell growth at 10 uM after 48 hrs by sulforhodamine B assay; assay type: functional; conditions: A498, 48 h, read-out: Activity
UO-31 = test: Growth inhibition of human UO31 cells after 48 hrs by sulforhodamine B assay; assay type: functional; conditions: UO-31, 48 h
SF-268 = test: Growth inhibition of human SF268 cells after 48 hrs by sulforhodamine B assay; assay type: functional; conditions: SF-268, 48 h
Malme-3M = test: Growth inhibition of human MALME-3M cells assessed as cell growth at 10 uM after 48 hrs by sulforhodamine B assay; assay type: functional; conditions: read-out: Activity
CAKI-1 = test: Growth inhibition of human CAKI-1 cells assessed as cell growth at 10 uM after 48 hrs by sulforhodamine B assay; assay type: functional; conditions: CAKI-1, 48 h, read-out: Activity
M14 = test: Growth inhibition of human M14 cells after 48 hrs by sulforhodamine B assay; assay type: functional; conditions: M14, 48 h
[2] = Growth inhibition of human NCI-ADR-RES cells assessed as cell growth at 10 uM after 48 hrs by sulforhodamine B assay; assay type: functional; conditions: read-out: Activity
TK-10 = test: Growth inhibition of human TK10 cells after 48 hrs by sulforhodamine B assay; assay type: functional; conditions: TK-10, 48 h
UACC-257 = test: Growth inhibition of human UACC257 cells after 48 hrs by sulforhodamine B assay; assay type: functional; conditions: UACC-257, 48 h
RPMI-8226 = test: Growth inhibition of human RPMI8226 cells after 48 hrs by sulforhodamine B assay; assay type: functional, cell-based; conditions: RPMI-8226, 48 h
U-251 = test: Growth inhibition of human U251 cells assessed as cell growth at 10 uM after 48 hrs by sulforhodamine B assay; assay type: functional; conditions: U-251, 48 h, read-out: Activity
NCI-H226 [3] = test: Growth inhibition of human NCI-H226 cells after 48 hrs by sulforhodamine B assay; assay type: functional; conditions: NCI-H226, 48 h
ACHN = test: Growth inhibition of human ACHN cells assessed as cell growth at 10 uM after 48 hrs by sulforhodamine B assay; assay type: functional; conditions: read-out: Activity
A498 [4] = test: Growth inhibition of human A498 cells after 48 hrs by sulforhodamine B assay; assay type: functional, cell-based; conditions: A498, 48 h
NCI-H226 [5] = test: Growth inhibition of human NCI-H226 cells assessed as cell growth at 10 uM after 48 hrs by sulforhodamine B assay; assay type: functional; conditions: NCI-H226, 48 h, read-out: Activity
SNB-75 = test: Growth inhibition of human SNB75 cells after 48 hrs by sulforhodamine B assay; assay type: functional; conditions: SNB-75, 48 h
UACC-62 = test: Growth inhibition of human UACC62 cells after 48 hrs by sulforhodamine B assay; assay type: functional; conditions: UACC-62, 48 h
MCF7 = test: Growth inhibition of human MCF7 cells assessed as cell growth at 10 uM after 48 hrs by sulforhodamine B assay; assay type: functional; conditions: MCF7, 48 h, read-out: Activity
HCT-116 = test: Growth inhibition of human HCT116 cells assessed as cell growth at 10 uM after 48 hrs by sulforhodamine B assay; assay type: functional; conditions: HCT-116, 48 h, read-out: Activity
CCRF-CEM [6] = test: Growth inhibition of human CCRF-CEM cells after 48 hrs by sulforhodamine B assay; assay type: functional
CCRF-CEM [7] = test: Growth inhibition of human CCRF-CEM cells assessed as cell growth at 10 uM after 48 hrs by sulforhodamine B assay; assay type: functional; conditions: read-out: Activity
IGROV-1 = test: Growth inhibition of human IGROV1 cells assessed as cell growth at 10 uM after 48 hrs by sulforhodamine B assay; assay type: functional; conditions: IGROV-1, 48 h, read-out: Activity
OVCAR-4 = test: Growth inhibition of human OVCAR4 cells after 48 hrs by sulforhodamine B assay; assay type: functional; conditions: OVCAR-4, 48 h
T47D = test: Growth inhibition of human T47D cells assessed as cell growth at 10 uM after 48 hrs by sulforhodamine B assay; assay type: functional; conditions: read-out: Activity
KM12 = test: Growth inhibition of human KM12 cells after 48 hrs by sulforhodamine B assay; assay type: functional, cell-based; conditions: KM12, 48 h
[8] = Growth inhibition of human HCC2998 cells after 48 hrs by sulforhodamine B assay; assay type: functional; conditions: HCC 2998, 48 h
SN12C = test: Growth inhibition of human SN12C cells after 48 hrs by sulforhodamine B assay; assay type: functional
K562 = test: Growth inhibition of human K562 cells assessed as cell growth at 10 uM after 48 hrs by sulforhodamine B assay; assay type: functional; conditions: K562, 48 h, read-out: Activity
[9] = read-out: LC50 (the source's name)

In the case of `COc1cc(-c2nn(-c3cccc(NC(=O)c4ccccc4)c3)cc2-c2ccncc2)ccc1Cl`, the growth at 10 µM (DU-145) is reported as 11.6%, the growth at 10 µM (MDA-MB-231) is reported as 5.8% and the GI50 (SW-620) is reported as 551 nM. For the same molecule, the TGI (SW-620) was > 100000 nM, the CC50 (SW-620; [9]) was > 100000 nM and the growth at 10 µM (COLO 205) was 2.21%. For the same molecule, the GI50 (SR) was 250 nM, the TGI (SR) was > 100000 nM and the CC50 (SR; [9]) was > 100000 nM. The growth at 10 µM (SK-OV-3) was 42.1%, the GI50 (MDA-MB-435) was 189 nM and the IC50 (MDA-MB-435) was 190 nM. For the same molecule, the TGI (MDA-MB-435) was 551 nM, the CC50 (MDA-MB-435; [9]) was 12300 nM and the growth at 10 µM (A498 [1]) was -23.2%. The GI50 (UO-31) was 638 nM, the TGI (UO-31) was > 100000 nM and the CC50 (UO-31; [9]) was > 100000 nM. For the same molecule, the GI50 (SF-268) was 859 nM, the TGI (SF-268) was > 100000 nM and the CC50 (SF-268; [9]) was > 100000 nM. It also gave a growth at 10 µM (Malme-3M) of 22.4%, a growth at 10 µM (CAKI-1) of 40.6% and a GI50 (M14) of 575 nM. For the same molecule, the LC50 (concentration killing 50% of cells) (M14) was > 100000 nM, the TGI (M14) was 12900 nM and the growth at 10 µM [2] was 0.34%. For the same molecule, the GI50 (TK-10) was 7000 nM, the TGI (TK-10) was > 100000 nM and the CC50 (TK-10; [9]) was > 100000 nM. The GI50 (UACC-257) was 859 nM, the TGI (UACC-257) was > 100000 nM and the CC50 (UACC-257; [9]) was > 100000 nM. The GI50 (RPMI-8226) was 850 nM, the IC50 (RPMI-8226) was 850 nM and the TGI (RPMI-8226) was > 100000 nM. The CC50 (RPMI-8226; [9]) was > 100000 nM, the growth at 10 µM (U-251) was 13.5% and the GI50 (NCI-H226 [3]) was 2350 nM. The TGI (NCI-H226 [3]) was > 100000 nM, the CC50 (NCI-H226 [3]; [9]) was > 100000 nM and the growth at 10 µM (ACHN) was 32.3%. It also gave a GI50 (A498 [4]) of 361 nM, an IC50 (A498 [4]) of 360 nM and a TGI (A498 [4]) of 3140 nM. For the same molecule, the CC50 (A498 [4]; [9]) was > 100000 nM, the growth at 10 µM (NCI-H226 [5]) was 39.1% and the GI50 (SNB-75) was 575 nM. The LC50 (lethal concentration, 50% net cell kill) (SNB-75) was > 100000 nM, the TGI (SNB-75) was > 100000 nM and the GI50 (UACC-62) was 692 nM. For the same molecule, the LC50 (50% lethal concentration) (UACC-62) was > 100000 nM, the TGI (UACC-62) was > 100000 nM and the growth at 10 µM (MCF7) was 4.67%. The growth at 10 µM (HCT-116) was 8.58%, the GI50 (CCRF-CEM [6]) was 492 nM and the LC50 (CCRF-CEM [6]) was > 100000 nM. The TGI (CCRF-CEM [6]) was > 100000 nM, the growth at 10 µM (CCRF-CEM [7]) was 2.06% and the growth at 10 µM (IGROV-1) was 47.4%. The GI50 (OVCAR-4) was 1170 nM, the LC50 (concentration killing 50% of cells) (OVCAR-4) was > 100000 nM and the TGI (OVCAR-4) was > 100000 nM. The growth at 10 µM (T47D) was 21.8%, the GI50 (KM12) was 556 nM and the IC50 (KM12) was 560 nM. The TGI (KM12) was > 100000 nM, the CC50 (KM12; [9]) was > 100000 nM and the GI50 [8] was 2320 nM. For the same molecule, the TGI [8] was 22400 nM, the CC50 [8, 9] was > 100000 nM and the GI50 (SN12C) was 2950 nM. The TGI (SN12C) was > 100000 nM, the CC50 (SN12C; [9]) was > 100000 nM and the growth at 10 µM (K562) was 2.59%.

From ChEMBL document CHEMBL2440076, “New triarylpyrazoles as broad-spectrum anticancer agents: design, synthesis, and biological evaluation” (Eur J Med Chem, 2013)
